One block for each compound: values may come before it.
Assays:
[1] = system: Leishmania major; assay: Antileishmanial activity against intracellular amastigote stage of Leishmania major infected in human THP1 cells after 120 hrs by giemsa staining based microscopic analysis; type: functional, organism-based; settings: THP-1, 120 h
[2] = system: Leishmania major; assay: Antileishmanial activity against promastigote stage of Leishmania major MHOM/IL/81/Friedlin after 72 hrs by MTT assay; type: functional, organism-based
[3] = Cytotoxicity against human THP1 cells after 72 hrs by MTT assay; type: cell-based; settings: THP-1 cells
[4] = system: Trypanosoma cruzi; assay: Antitrypanosomal activity against Trypanosoma cruzi MHOM/BR/78/Silvio cloneX10/7A epimastigotes measured after 4 days by resazurin dye based fluorescence assay; type: functional, organism-based; settings: 96 h
[5] = system: Leishmania donovani; assay: Antileishmanial activity against intracellular amastigote stage of Leishmania donovani infected in human THP1 cells after 120 hrs by giemsa staining based microscopic analysis; type: functional, organism-based; settings: THP-1, 120 h
[6] = Cytotoxicity against human HepG2 cells after 72 hrs by MTT assay; type: cell-based
[7] = system: Leishmania infantum; assay: Antileishmanial activity against Leishmania infantum axenic amastigotes after 48 hrs by steady-glo luciferase reporter gene assay; type: functional, organism-based
[8] = system: Trichomonas vaginalis; assay: Antiprotozoal activity against Trichomonas vaginalis TVR87 measured after 48 hrs by trypan blue assay; type: functional, organism-based
[9] = Solubility of the compound in RPMI medium at 4 to 6 uM; type: physicochemical
[10] = Selectivity index, ratio of CC50 for human HepG2 cells to IC50 for promastigote stage of Leishmania donovani MHOM/IN/00/DEVI; type: toxicity; settings: read-out: Ratio CC50/IC50
[11] = Solubility of the compound in RPMI medium at >62.5 uM; type: physicochemical
[12] = system: Trypanosoma brucei brucei; assay: Antitrypanosomal activity against trypomastigote stage of Trypanosoma brucei brucei AnTat 1.9 assessed as decrease in parasite viability after 69 hrs by Alamar Blue assay; type: functional, organism-based; settings: AnTat 1.9, 69 h
[13] = system: Leishmania donovani; assay: Antileishmanial activity against promastigote stage of Leishmania donovani MHOM/IN/00/DEVI after 72 hrs by MTT assay; type: functional, organism-based
[14] = Toxicity in Swiss mouse assessed as effect on liver at 1 mg/kg, ip administered for 5 days measured measured on day 7 to day 30 post last dose by HES staining based microscopic analysis; type: organism-based; settings: in vivo, 120 h
[15] = Half life in CD-1 mouse hepatic microsomes in presence of NADPH by LC-MS/MS analysis; type: ADME, Microsome; settings: liver microsomes
[16] = Mutagenicity in Salmonella typhimurium TA102 at 62.5 to 625 uM preincubated for 1 hr with S9 mix followed by addition of molten top agar and measured 48 hrs post dark incubation by Ames test; type: toxicity, subcellular; settings: salmonella enterica subsp. enterica serovar typhimurium, s9, 48 h
[17] = Toxicity in Swiss mouse assessed as effect on heart at 1 mg/kg, ip administered for 5 days measured measured on day 7 to day 30 post last dose by HES staining based microscopic analysis; type: organism-based; settings: in vivo, 120 h
[18] = Toxicity in Swiss mouse assessed as fibrosis at injection site 10 mg/kg, ip administered for 5 days measured measured on day 7 to day 30 post last dose by HES staining based microscopic analysis; type: organism-based; settings: in vivo, 120 h
[19] = Toxicity in Swiss mouse assessed as effect on lungs at 1 mg/kg, ip administered for 5 days measured measured on day 7 to day 30 post last dose by HES staining based microscopic analysis; type: organism-based; settings: in vivo, 120 h
[20] = Mutagenicity in Salmonella typhimurium TA98 at 62.5 to 625 uM preincubated for 1 hr with S9 mix followed by addition of molten top agar and measured 48 hrs post dark incubation by Ames test; type: toxicity, subcellular; settings: salmonella enterica subsp. enterica serovar typhimurium, s9, 48 h
[21] = Toxicity in Swiss mouse assessed as inflammation at injection site 10 mg/kg, ip administered for 5 days measured measured on day 7 to day 30 post last dose by HES staining based microscopic analysis; type: organism-based; settings: in vivo, 120 h
[22] = Toxicity in Swiss mouse assessed as effect on kidney at 1 mg/kg, ip administered for 5 days measured measured on day 7 to day 30 post last dose by HES staining based microscopic analysis; type: organism-based; settings: in vivo, 120 h
[23] = Toxicity in Swiss mouse assessed as effect on skin by measuring hypodermic lymph node at 10 mg/kg, ip administered for 5 days measured measured on day 7 to day 30 post last dose by HES staining based microscopic analysis; type: organism-based; settings: in vivo, 120 h
[24] = Mutagenicity in Salmonella typhimurium TA100 at 62.5 to 625 uM preincubated for 1 hr followed by addition of molten top agar and measured 48 hrs post dark incubation by Ames test; type: toxicity; settings: salmonella enterica subsp. enterica serovar typhimurium
[25] = system: Leishmania donovani; assay: Potency index, ratio of miltefosine IC50 to test compound IC50 for intracellular amastigote stage of Leishmania donovani infected in human THP1 cells; type: functional
[26] = system: Leishmania donovani; assay: Selectivity ratio of IC50 for wild type promastigote stage of Leishmania donovani MHOM/SD/62/1S-CL2D to IC50 for NTR1 in promastigote stage of Leishmania donovani MHOM/SD/62/1S-CL2D
[27] = system: Leishmania donovani; assay: Selectivity ratio of IC50 for NTR2 in promastigote stage of Leishmania donovani MHOM/SD/62/1S-CL2D to IC50 for NTR1 in promastigote stage of Leishmania donovani MHOM/SD/62/1S-CL2D
[28] = system: HepG2; assay: Genotoxicity in human HepG2 cells at 1 to 20 uM after 2 to 72 hrs by comet assay; type: toxicity, cell-based; settings: hepg2, 20 µM
[29] = Mutagenicity in Salmonella typhimurium TA100 at 62.5 to 625 uM preincubated for 1 hr with S9 mix followed by addition of molten top agar and measured 48 hrs post dark incubation by Ames test; type: toxicity, subcellular; settings: salmonella enterica subsp. enterica serovar typhimurium, s9, 48 h
[30] = Toxicity in Swiss mouse assessed as effect on brain at 1 mg/kg, ip administered for 5 days measured measured on day 7 to day 30 post last dose by HES staining based microscopic analysis; type: organism-based; settings: in vivo, 120 h
[31] = Electrochemical behavior of the compound assessed as redox potential corrected toward normal hydrogen electrode by cyclic voltammetry
[32] = Drug metabolism in CD-1 mouse hepatic microsomes assessed as 6-chloro-8-(4-chlorophenylsulfinyl)-3-nitro-2-(phenylsulfonylmethyl)imidazo[1,2-a]pyridine formation in presence of NADPH by LC-MS/MS analysis; type: ADME, Liver, Microsome
[33] = Mutagenicity in Salmonella typhimurium TA97a at 62.5 to 625 uM preincubated for 1 hr with S9 mix followed by addition of molten top agar and measured 48 hrs post dark incubation by Ames test; type: toxicity, subcellular; settings: salmonella enterica subsp. enterica serovar typhimurium, s9, 48 h
[34] = Toxicity in Swiss mouse assessed as effect on muscles at 1 mg/kg, ip administered for 5 days measured measured on day 7 to day 30 post last dose by HES staining based microscopic analysis; type: organism-based; settings: in vivo, 120 h
[35] = Mutagenicity in Salmonella typhimurium TA102 at 62.5 to 625 uM preincubated for 1 hr followed by addition of molten top agar and measured 48 hrs post dark incubation by Ames test; type: toxicity; settings: salmonella enterica subsp. enterica serovar typhimurium
[36] = Toxicity in Swiss mouse assessed as effect on liver by measuring inflammatory cell infiltration at 10 mg/kg, ip administered for 5 days measured measured on day 7 to day 30 post last dose by HES staining based microscopic analysis; type: organism-based; settings: in vivo, 120 h
[37] = system: Leishmania infantum; assay: Potency index, ratio of fexinidazole IC50 to test compound IC50 for Leishmania infantum axenic amastigotes; type: functional
[38] = Substrate activity at NTR1 in promastigote stage of Leishmania donovani MHOM/SD/62/1S-CL2D assessed as inhibition of parasite growth after 72 hrs by resazurin dye based assay
[39] = Mutagenicity in Salmonella typhimurium TA97a at 62.5 to 625 uM preincubated for 1 hr followed by addition of molten top agar and measured 48 hrs post dark incubation by Ames test; type: toxicity; settings: salmonella enterica subsp. enterica serovar typhimurium
[40] = Toxicity in Swiss mouse assessed as effect on adipose tissue at 1 mg/kg, ip administered for 5 days measured measured on day 7 to day 30 post last dose by HES staining based microscopic analysis; type: organism-based; settings: in vivo, 120 h
[41] = Mutagenicity in Salmonella typhimurium TA98 at 62.5 to 625 uM preincubated for 1 hr followed by addition of molten top agar and measured 48 hrs post dark incubation by Ames test; type: toxicity; settings: salmonella enterica subsp. enterica serovar typhimurium
[42] = Lipophilicity, log D of the compound at pH 7.4 by HPLC analysis; type: physicochemical; settings: buffer
[43] = Substrate activity at NTR2 in promastigote stage of Leishmania donovani MHOM/SD/62/1S-CL2D assessed as inhibition of parasite growth after 72 hrs by resazurin dye based assay
[44] = molecular target: T1, Albumin (Homo sapiens, UniProt P02768); assay: Binding affinity to human serum albumin assessed as unbound fraction after 4 hrs by LC-MS analysis; type: ADME; settings: isolated protein
[45] = system: Plasmodium falciparum; assay: Antiplasmodial activity against chloroquine/proguanil/pyrimethamine-resistant synchronized stage of Plasmodium falciparum K1 after 72 hrs by SYBR green1 staining based spectrophotometric method; type: functional, organism-based; settings: K1, 72 h
[46] = system: Leishmania donovani; assay: Antileishmanial activity against wild type promastigote stage of Leishmania donovani MHOM/SD/62/1S-CL2D after 72 hrs by resazurin dye based fluorescence assay; type: functional, organism-based
[47] = Acute toxicity in Swiss mouse at 1 to 10 mg/kg, ip measured for 24 hrs; type: organism-based; settings: in vivo
[48] = molecular target: T1, Albumin; assay: Binding affinity to human serum albumin after 4 hrs by LC-MS analysis; type: ADME; settings: read-out: PB (converted)
[49] = Toxicity in Swiss mouse assessed as effect on spleen at 1 mg/kg, ip administered for 5 days measured measured on day 7 to day 30 post last dose by HES staining based microscopic analysis; type: organism-based; settings: in vivo, 120 h

T1 sequence (P02768 whole entry): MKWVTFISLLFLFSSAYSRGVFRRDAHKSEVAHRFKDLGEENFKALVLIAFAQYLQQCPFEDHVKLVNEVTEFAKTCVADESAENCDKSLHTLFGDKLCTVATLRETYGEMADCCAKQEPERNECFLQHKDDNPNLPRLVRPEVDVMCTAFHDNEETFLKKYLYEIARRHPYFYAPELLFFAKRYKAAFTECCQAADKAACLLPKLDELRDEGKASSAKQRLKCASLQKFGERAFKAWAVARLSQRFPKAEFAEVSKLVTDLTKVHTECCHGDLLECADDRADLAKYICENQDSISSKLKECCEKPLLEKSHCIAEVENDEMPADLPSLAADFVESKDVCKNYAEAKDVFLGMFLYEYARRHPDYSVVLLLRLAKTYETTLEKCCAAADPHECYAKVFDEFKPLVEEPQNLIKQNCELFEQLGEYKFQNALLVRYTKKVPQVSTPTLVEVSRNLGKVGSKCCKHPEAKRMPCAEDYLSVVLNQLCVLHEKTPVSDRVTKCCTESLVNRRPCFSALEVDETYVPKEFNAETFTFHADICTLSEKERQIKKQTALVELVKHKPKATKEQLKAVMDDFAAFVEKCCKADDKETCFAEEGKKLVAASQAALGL

Compound: C[C@@H]1[C@H](O)[C@@H](C)/C=C/C=C/C=C/C=C/C=C/C=C/C=C/[C@H](O[C@@H]2O[C@H](C)[C@@H](O)[C@H](N)[C@@H]2O)C[C@@H]2O[C@](O)(C[C@@H](O)C[C@@H](O)[C@H](O)CC[C@@H](O)C[C@@H](O)CC(=O)O[C@H]1C)C[C@H](O)[C@H]2C(=O)O [AMPHOTERICIN B]
IC50 [1]: 0.2 µM
IC50 [2]: 0.6 µM

IC50 [4]: 8.9 µM
IC50 [5]: > 50 µM
Compound: CSc1ccc(OCc2ncc([N+](=O)[O-])n2C)cc1 [FEXINIDAZOLE]
CC50 at 72 h [3]: > 62.5 µM
CC50 at 72 h [6]: > 200 µM

IC50 [1]: 5 µM
IC50 [7]: 9 µM
IC50 [4]: 6.2 µM
solubility [9]: Soluble
solubility [11]: Insoluble
IC50 [12]: 3.8 µM
IC50 [5]: 3.5 µM
Compound: O=[N+]([O-])c1c(CS(=O)(=O)c2ccccc2)nc2c(Sc3ccc(Br)cc3)cc(Cl)cn12
CC50 at 72 h [3]: > 62.5 µM
IC50 [8]: 4.6 to 5 µM
selectivity ratio [10]: > 62.5
CC50 at 72 h [6]: > 62.5 µM
IC50 [2]: 1.3 µM
IC50 [13]: 1 µM

Compound: O=[N+]([O-])c1c(CS(=O)(=O)c2ccccc2)nc2c(Sc3ccc(Cl)cc3)cc(Cl)cn12
Activity [14]: Non-Toxic
half-life [15]: 3 min
Activity [16]: Non-Toxic
IC50 [1]: 2.1 µM
Activity [17]: Non-Toxic
Activity [18]: Non-Toxic
Activity [19]: Non-Toxic
Activity [20]: Non-Toxic
Activity [21]: Non-Toxic
IC50 [7]: 1.7 µM
CC50 at 72 h [3]: > 62.5 µM
Activity [22]: Non-Toxic
Activity [23]: Non-Toxic
Activity [24]: Non-Toxic
Ratio IC50 [25]: 3
IC50 [4]: 2.2 µM
Ratio IC50 [26]: 8
Ratio IC50 [27]: 8
Activity [28]: Non-Toxic
IC50 [8]: 4.6 to 5 µM
Activity [29]: Non-Toxic
solubility [9]: Soluble
Activity [30]: Non-Toxic
selectivity ratio [10]: > 100
Activity [31]: -0.63 V
Drug metabolism [32]: Metabolite_Detected
Activity [33]: Non-Toxic
Activity [34]: Non-Toxic
Activity [35]: Non-Toxic
solubility [11]: Insoluble
Activity [36]: Non-Toxic
Ratio IC50 [37]: 2
IC50 [38]: 0.033 µM
IC50 [12]: 1.3 µM
Activity [39]: Non-Toxic
Activity [40]: Non-Toxic
IC50 [5]: 1 to 1.3 µM
Activity [41]: Non-Toxic
logD [42]: 4.26
CC50 at 72 h [6]: > 100 µM
IC50 [2]: 1.3 µM
IC50 [43]: 0.3 µM
logFu [44]: -3.28
IC50 [45]: 19 µM
IC50 [46]: 0.26 µM
IC50 [13]: 1 µM
Activity [47]: Non-Toxic
fraction unbound at 4 h [48]: 0.0005
Activity [49]: Non-Toxic

IC50 [4]: 1.2 µM
Compound: O=C(Cn1ccnc1[N+](=O)[O-])NCc1ccccc1 [BENZNIDAZOLE]

IC50 [4]: 0.3 µM
Compound: CC1CS(=O)(=O)CCN1/N=C/c1ccc([N+](=O)[O-])o1 (stereo unspecified) [NIFURTIMOX]

Compound: O=C1C(O)=C([C@H]2CC[C@H](c3ccc(Cl)cc3)CC2)C(=O)c2ccccc21 [ATOVAQUONE]
IC50 [45]: 0.001 µM

From ChEMBL document CHEMBL4382286, “Nongenotoxic 3-Nitroimidazo[1,2-a]pyridines Are NTR1 Substrates That Display Potent in Vitro Antileishmanial Activity” (ACS Med Chem Lett, 2019)
